Like-named read-outs stand apart in the source and are kept apart here. Bounds are passed on as bounds.

Holding throughout (assay type): cell-based
In assay [1] the test system is Leishmania mexicana promastigotes. Nature of the assay: Mitochondrial membrane potential, Mitotracker Red CMXROS, flow cytometry. On the procedure: In order to determine the energetic state of the mitochondrion after parasites treatment, the compound Mitotraker Red CMXROS was used. As described in the Materials and Methods section, parasites were treated for 6, 16, 24, and 48 hours with each molecule at its IC50, then incubated with Mitotraker Red CMXROS (50 nM) for 30 minutes under culture conditions, and finally analyzed by flow cytometry. […] Additionally, to rule out if Erg itself (the non-azole fraction of the conjugates) could be responsible for this hyperpolarization, parasites were treated with this compound and ΔΨmit was monitored for up to 48 hours by flow cytometry.
Mitotracker CMX Red(Invitrogen) was used to determine the mitochondrial membrane potential (Ψmit) of treated parasites. After 6, 16, 24, and 48 hours treatment, cells were incubated in culture medium with 50 nM Mitotracker CMX Red for 30 minutes at 26°C in the dark. Thereafter, parasites were washed twice with PBS, resuspended in 1 mL buffer, and analyzed using a cytometer (Beckman Coulter). Parasites incubated with valinomycin (500 nM for 30 minutes) were used as positive control. To evaluate the effect of ergosterone coupled molecules on the mitochondrial membrane potential immediately after molecule addition we used the fluorophore rhodamine-123, a mitochondrion-specific cationic dye, which distributes across the inner mitochondrial membranes strictly according to their membrane potential, as described before. Briefly, 1 x 10^7 parasites were washed twice with rhodamine 123 loading buffer (20 mM Tris-HCl, 130 mM KCl, 1 mM MgCl2, and 2 mM KH2PO4) and incubated with 20 μM rhodamine 123 for 45 minutes at 29°C under agitation. Samples were washed twice, resuspended in 500 μL of the same buffer, and transferred to a quartz cuvette. Fluorescence (ex 488 nm and em 530 nm) was registered in a Hitachi F-7000 Spectrofluorimeter. FCCP was used as control for mitochondrial membrane depolarization.

Assay [2] shares this test system. Description: Reactive oxygen species (superoxide) determination with dihydroethidium. The note with it: Erg-GTr/Erg-GTr2 treated cells; data not shown. On the procedure:
To evaluate the intracellular level of reactive oxygen species (ROS) after Erg-GTr or Erg-GTr2 treatment, parasites were incubated with dihydroethidium, which become oxidized in the presence of the superoxide anion to form the fluorescent DNA-intercalating agent ethidium, i.e. the emitted fluorescence is proportional to the amount of ROS present. Figure 6A represents a ROS production kinetics analysis performed between 6 and 48 hours post-treatment with both molecules. […] In fact, ROS levels increased already during the first 6 hours of treatment when compared with control cells, which maintained a ROS level lower than 2% throughout the whole kinetic study.
Figure 6 FIGURE 6: Superoxide production after Erg-GTr or Erg-GTr2 treatment. Parasites were treated with 1.4 μM Erg-GTr or 2.3 μM Erg-GTr2 or DMSO (control cells), harvested after different time points and then prepared to measure intracellular superoxide using dyhidroethidium. (A) Superoxide production kinetics in control and treated parasites. […] (B) Representative FACS histograms showing the superoxide-sensitive fluorescence of control and treated promastigotes after 24 hours incubation. The percentages were determined using the WinMDI software. […]
Dihydroethidium (Invitrogen) was used to detect the intracellular level of superoxide anion. […] Thereafter, samples were washed with PBS and immediately analyzed in a Beckman Coulter Cytometer.

Assay [3] relates to human dermic fibroblasts. Description: Half-inhibitory concentration on human fibroblasts, modified MTT method. The conditions noted are these: 72 hours. On the procedure: (§1) Promastigotes of Leishmania mexicana Bel 21 strain were cultured at 26°C in Liver Infusion Tryptone (LIT) medium supplemented with 10% fetal bovine serum (Internegocios). Primary cultures of human dermic fibroblasts were performed at 37°C in DMEN medium (Sigma) supplemented with 10% fetal bovine serum in a CO2 incubator at 5% CO2.
(§2) To determine the IC50 in parasites and human fibroblasts the protocol described by was followed. Briefly, a suspension of 2 x 10^6 parasites per mL^-1 or 5 x 10^3 fibroblasts per well were transferred into 96 well plates and different concentrations of the compounds were added. Plates were incubated under the corresponding culture conditions for 48 or 72 hours for L. mexicana or human fibroblasts, respectively. Thereafter, parasites plates were centrifuged prior to the elimination of the supernatant. Cell viability was measured by the modified MTT method, where cells were incubated with the MTT substrate at 0.2 mg x mL^-1 for 4 hours. Colored crystals formed were solubilized in DMSO and absorbance was measured at 570 nm. IC50 was obtained from a dose response curve using the software OriginLab Pro 6.0^©.

For assay [4], the system named is Leishmania mexicana promastigotes. Description: Half-inhibitory concentration on parasites, modified MTT method. The conditions noted are these: for IC50: read-out: IC50 on L. mexicana promastigotes; for Selectivity index: promastigotes compared to human dermic fibroblasts; for growth inhibition on promastigotes: concentrations even higher than 100 μM. On the procedure:
Parasites were treated with different concentrations of the synthesized compounds for 48 hours to determine their cytotoxic effect. A dose dependent growth inhibition was observed after this time.
as §1, §2

Assay [5] has the same test system. Description: Alkalinization of acidocalcisomes, acridine orange. The note with it: Erg-GTr 1.4 μM or Erg-GTr2 2.4 μM; nigericin 2 μM as control. An excerpt:
Leishmania can store Ca^2+ in different compartments like the endoplasmic reticulum, the mitochondrion, and the acidocalcisomes. The major Ca^2+ reservoir is represented by this last organelle. In order to analyze if the [Ca^2+]cyt increase is due to its release from acidocalcisomes, parasites were charged with acridine orange and assayed fluorimetrically. Since acridine orange accumulates in acidic compartments, it allows detection of alkalinization.
To evaluate the effect of ergosterone coupled molecules on the Ca^2+ reservoir organelle acidocalcisome, parasites were stained with acridine orange as described previously. Briefly, 1 x 10^7 parasites were washed twice with loading buffer (20 mM Tris-HCl, 130 mM KCl, 1 mM MgCl2, and 2 mM KH2PO4) and incubated for 5 minutes with acridine orange (5 μM). Samples were washed twice, resuspended in 500 μL of the same buffer, and transferred to a stirred quartz cuvette at 29°C. Fluorescence (ex 488 nm and em 530 nm) was registered in a Hitachi F-7000 Spectrofluorimeter. Nigericin was used as control for acidocalcisome alkalinization.

Take `CC(=O)N[C@@H](CS)C(=O)O` [N-acetyl-cysteine, reference compound]: in assay [1] (Erg-GTr/Erg-GTr2 treated cells, data not shown), the “effect of ROS scavenger on mitochondrion hyperpolarization” value is “did not prevent”. The “effect of ROS scavenger on ROS formation” value in assay [2] was “revert partially”.
Consider “1-[5-hydroxy-10-methyl-3-oxo-17-(1,4,5-trimethyl-hex-2-enyl)-1,2,3,4,5,9,10,11,12,13,14,15,16,17-tetradecahydro-cyclopenta[a]phenanthren-6-ylidene-hydrazinocarbonyl]-pyridinium chloride [Erg-GP]”, for which the IC50 came to 44.5 µM in assay [3] and 42.4 ± 2.8 µM in assay [4] (48 hours, MTT). The same compound had a Selectivity index in assay [4] of 1.0.
In the case of `CC(C)C(C)C=CC(C)C1CCC2C3=CC(=O)C4(O)CC(=O)CCC4(C)C3CCC21C` (stereo not shown) [Ergosterone, 5-hydroxy-10,13-dimethyl-17-(1,4,5-trimethyl-hex-2-enyl)-1,4,5,9,10,11,12,13,14,15,16,17-dodecahydro-2H-cyclopenta[a]phenanthrene-3,6-dione], in assay [1] (treatment up to 48 hours, flow cytometry), the “effect on inner mitochondrial membrane potential (ΔΨmit)” value is recorded as “No differences”. Also, the half-inhibitory concentration (IC50) in assay [3] (Fibroblast) came out at 28.3 ± 8.5 µM; in assay [4] (Leishmania mexicana, 48 h), 9 ± 0.7 µM. This compound also gave a Selectivity index in assay [4] of 3.1.
Turning to `NNC(=O)[n+]1ccccc1.[Cl-]` [GP, 1-hydrazinocarbonyl-pyridinium chloride, reference compound], in assay [4] (Leishmania mexicana, 48 h), the IC50 was above 200 µM. In addition, in assay [4] (48 hours), the “growth inhibition on promastigotes” value is recorded as “did not show inhibition”.
As for `C[N+](C)(C)CC(=O)NN` [GT, hydrazinocarbonylmethyl-trimethyl-ammonium chloride, reference compound], the IC50 in assay [4] (Leishmania mexicana, 48 h) is above 200 µM. For the same compound, the “growth inhibition on promastigotes” value in assay [4] (48 hours) was “did not show inhibition”.
As for “[5-hydroxy-10-methyl-3-oxo-17-(1,4,5-trimethyl-hex-2-enyl)-1,2,3,4,5,9,10,11,12,13,14,15,16,17-tetradecahydro-cyclopenta[a]phenanthren-6-ylidene-hydrazinocarbonylmethyl]-trimethyl-ammonium chloride [Erg-GT]”, the IC50 in assay [3] was 36.4 µM; in assay [4] (48 hours, MTT), 10.4 ± 0.2 µM. Also, the Selectivity index in assay [4] was found to be 3.5.
As for `CC(C)C(C)C=CC(C)C1CCC2C3=CC=C4CC(O)CCC4(C)C3CCC21C` (stereo not shown) [Ergosterol, 10,13-dimethyl-17-(1,4,5-trimethyl-hex-2-enyl)-2,3,4,9,10,11,12,13,14,15,16,17-dodecahydro-1H-cyclopenta[a]phenanthren-3-ol, reference compound], the IC50 in assay [3] (Fibroblast) stood at 27 ± 3.5 µM; in assay [4] (Leishmania mexicana, 48 h), 33.8 ± 4.7 µM. The compound further yielded a Selectivity index in assay [4] of 0.8.
In the case of `NNC(=O)n1cnnc1` [GTr, [1,2,4]triazole-4-carboxylic acid hydrazide], the half-maximal inhibitory concentration (IC50) in assay [4] (Leishmania mexicana, 48 h) worked out at 158 µM. Also, the “growth inhibition on promastigotes” value in assay [4] (48 hours) was “did not show inhibition”.
Consider `CO[C@@H]1C[C@@H](C[C@H]2CC[C@H](C)[C@H]([C@@H](C)C(=O)O)O2)O[C@]2(O[C@](C)([C@H]3CC[C@@](C)([C@@H]4O[C@@H]([C@H]5O[C@@](O)(CO)[C@H](C)C[C@@H]5C)C[C@@H]4C)O3)C[C@H]2C)[C@@H]1C` [nigericin, reference compound], for which the “acridine orange fluorescence (acidocalcisome alkalinization)” value in assay [5] was “further reduction of the acidity”.

The record behind these values is PMC5354587, “Ergosterone-coupled Triazol molecules trigger mitochondrial dysfunction, oxidative stress, and acidocalcisomal Ca^2+ release in Leishmania mexicana promastigotes” (Microbial Cell, 2015).
